Assay results as given in patent publication US20230301885A1, “NOVEL USE” (DSM IP ASSETS B.V., priority 2020, published 2023).

Columns and labels:
C. acnes = test: Microbiome balance model, sebaceous skin mixture: C. acnes; assay type: cell-based, Cutibacterium acnes; details: 4 h at 37° C.
Method: (§1) Thus, in particular the term ‘by not unproportionally affecting the growth of anyone thereof’ refers to a balancing of at least two, preferably all dry skin or sebaceous skin microbes as defined herein in the mutual presence thereof, wherein only small changes in the difference in the (individual) shares of the microbes compared to the corresponding shares of the control are observed. Preferably, the small changes in the (individual) share (after 4 h of incubation at 37° C.) is less than ±15%, in particular less than ±10%, most in particular less than ±7.5%, compared to the control. Said change in the share is calculated as: share of the respective microbe within the group of at least two, preferably all microbes of dry or sebaceous skin in the presence of 1,3-PDO [%] minus share of the same microbe within the same group of microbes in the absence of 1,3-PDO [%], both after 4 h of incubation at 37° C. as illustrated in the example.
(§2) The ‘not unproportionally affected growth’ can also be assessed by determining an overall impact value, by • (1) assessing the impact of the ingredient on the individual microbe (i) and assigning an individual impact value x′(i) to said microbe as outlined below: • [formula] • If x(i) is • a) ≤ 0.1 then an integer x′(i) of 1 is assigned (no impact) • b) >0.1 ≤ 0.5then an integer x′(i) of 2 is assigned (slight impact) • c) > 0.5 then an integer x′(i) of 3 is assigned (significant impact), followed by • (2) assessing the overall effect of the ingredient on the respective microbiome by calculating the overall impact value y with formula (II) • [formula] • with n being the total number of microbes in the respective microbiota, wherein a good balancing is characterized by an overall impact value y of less than 2, preferably less than 1.75, most preferably less than 1.7.
(§3) 5 mL of TSB (Tryptic Say Broth) to which no (Ref.1) or 500 µL of 2 wt.-% of 1,3-propanediol (1,3-PDO) in PBS (Phosphate-buffered saline) have been added. Then this solutions have been inoculated by 500 µL of the respective calibrated mixture of the microbes as outlined below. Directly after inoculation and/or after 4 hours of incubation at 37° C., 100 µL have been taken and plated on an Agar gel petri dish. The microbes have then been counted based on the colony specific morphology and/or size.
(§4) All shares have been rounded.

S. mitis [1] = test: Microbiome balance model, sebaceous skin mixture: S. mitis; assay type: cell-based, Streptococcus mitis; details: 4 h at 37° C.
Method: as §1, §2, §3, §4

S. oralis = test: Microbiome balance model, dry skin mixture: S. oralis; assay type: cell-based, Streptococcus oralis; details: 4 h at 37° C.
Method: as §1, §2, §3, §4

S. aureus [2] = test: Microbiome balance model, S. epidermidis/S. aureus co-culture: S. aureus; assay type: cell-based, Staphylococcus aureus; details: co-culture with S. epidermidis; for CSA4h counts of colony of S. aureus / CSA4h share of S. aureus: after 4 hours of incubation at 37° C.; for CSA0 share of S. aureus / CSA0 counts of colony of S. aureus: directly after inoculation; for CSA0 counts of colony of S. aureus: 500 µL of 2 wt.-% in PBS in 5 mL TSB
Method: (§5) The term ‘share’ as used herein refers to the share of each (individual) microbe, based on the total number of microbes in the respective group of microbes in % (i.e. the at least two, preferably all dry or sebaceous skin microbes as defined herein, respectively S. epidermidis and ), either before or after inoculation (as indicated). The share is calculated using the colony count of the respective (individual) microbe divided by the sum of the colony counts of all microbes of the respective microbiota * 100%.
as §3, §4

[3] = tested on: microbes of sebaceous skin; test: Microbiome balance model, sebaceous skin mixture: total of all microbes; assay type: cell-based; details: 4 h at 37° C.
Method: (§6) Preferably, the difference in total number of said at least two, preferably all microbes, compared to the respective total number in the absence of 1,3-propanediol (i.e. the control), after 4 h of incubation at 37° C., is within a range of ±50%, preferably ±40%, more preferably ±15%, most preferably ±10%.
as §2, §3, §4

S. hominis = test: Microbiome balance model, sebaceous skin mixture: S. hominis; assay type: cell-based, Staphylococcus hominis; details: for S. hominis counts of colony / S. hominis share / S. hominis valuation, impact value x(i)′: 4 h at 37° C.
Method: as §1, §2, §3, §4

microbes of dry skin = test: Microbiome balance model, dry skin mixture: total of all microbes; assay type: cell-based; details: 4 h at 37° C.
Method: as §6, §2, §3, §4

S. mitis [4] = test: Microbiome balance model, dry skin mixture: S. mitis; assay type: cell-based, Streptococcus mitis; details: 4 h at 37° C.
Method: as §1, §2, §3, §4

M. globosa [5] = test: Microbiome balance model, sebaceous skin mixture: M. globosa; assay type: cell-based, Malassezia globosa; details: 4 h at 37° C.
Method: as §1, §2, §3, §4

M. luteus = test: Microbiome balance model, dry skin mixture: M. luteus; assay type: cell-based, Micrococcus luteus; details: 4 h at 37° C.
Method: as §1, §2, §3, §4

E. coli = details: known; cited from earlier work
M. globosa [6] = test: Microbiome balance model, dry skin mixture: M. globosa; assay type: cell-based, Malassezia globosa; details: 4 h at 37° C.
Method: as §1, §2, §3, §4

C.simulans = test: Microbiome balance model, sebaceous skin mixture: C. simulans; assay type: cell-based, Corynebacterium simulans; details: 4 h at 37° C.
Method: as §1, §2, §3, §4

P. acnes = test: Microbiome balance model, dry skin mixture: P. acnes; assay type: cell-based, Cutibacterium acnes; details: 4 h at 37° C.
Method: as §1, §2, §3, §4

S. aureus [7] = details: known; cited from earlier work
C. tuberculostearicum = test: Microbiome balance model, dry skin mixture: C. tuberculostearicum; assay type: cell-based, Corynebacterium tuberculostearicum; details: 4 h at 37° C.
Method: as §1, §2, §3, §4

S. capitis = test: Microbiome balance model, sebaceous skin mixture: S. capitis; assay type: cell-based, Staphylococcus capitis; details: 4 h at 37° C.
Method: as §1, §2, §3, §4

S. epidermidis [8] = test: Microbiome balance model, sebaceous skin mixture: S. epidermidis; assay type: cell-based, Staphylococcus epidermidis; details: for S. epidermidis change in share vs control / S. epidermidis counts of colony / S. epidermidis share / S. epidermidis valuation, impact value x(i)′: 4 h at 37° C.
Method: as §1, §2, §3, §4

S. epidermidis [9] = test: Microbiome balance model, S. epidermidis/S. aureus co-culture: S. epidermidis; assay type: cell-based, Staphylococcus epidermidis; details: co-culture with S. aureus; for CSE4h counts of colony of S. epidermidis / CSE4h share of S. epidermidis: after 4 hours of incubation at 37° C.; for CSE0 share of S. epidermidis / CSE0 counts of colony of S. epidermidis: directly after inoculation; for CSE0 counts of colony of S. epidermidis: 500 µL of 2 wt.-% in PBS in 5 mL TSB
Method: as §5, §3, §4

## 1,3-Propanediol [1,3-PDO]
C. acnes
  C. acnes change in share vs control: +1%^1
  C. acnes counts of colony: 2664 CFU/ml
  C. acnes share: 25%
  C. acnes valuation, impact value x(i)′: 1^3 (≤ 0.1 then an integer x′(i) of 1 is assigned (no impact))
S. mitis [1]
  S. mitis change in share vs control: -2%^1
  S. mitis counts of colony: 1300 CFU/ml
  S. mitis share: 12%
  S. mitis valuation, impact value x(i)′: 2^3 (>0.1 ≤ 0.5then an integer x′(i) of 2 is assigned (slight impact))
S. oralis
  S. oralis change in share vs control: +5%^1
  S. oralis counts of colony: 5700 CFU/ml
  S. oralis share: 27%
  S. oralis valuation, impact value x(i)′: 3^3 (> 0.5 then an integer x′(i) of 3 is assigned (significant impact))
S. aureus [2]
  CSA4h counts of colony of S. aureus: 50 CFU/ml
  CSA4h share of S. aureus: 23%
  CSA0 share of S. aureus: 11%
  CSA0 counts of colony of S. aureus: 30 CFU/ml
[3]
  Change of total CFU/ml vs control: -7%^2
  Total counts of colony: 10783 CFU/ml
  Total share: 100%
  overall impact value y: 1.6^4
S. hominis
  growth of S. hominis compared to the control, in words: increased
  S. hominis counts of colony: 373 CFU/ml
  S. hominis share: 3%
  S. hominis valuation, impact value x(i)′: 1^3 (≤ 0.1 then an integer x′(i) of 1 is assigned (no impact))
Microbes of dry skin
  Change of total CFU/ml vs control: +38%^2
  Total counts of colony: 21082 CFU/ml
  overall impact value: 1.7^4
S. mitis [4]
  S. mitis change in share vs control: +6%^1
  S. mitis counts of colony: 6600 CFU/ml
  S. mitis share: 31%
  S. mitis valuation, impact value x(i)′: 3^3 (> 0.5 then an integer x′(i) of 3 is assigned (significant impact))
M. globosa [5]
  M. globosa change in share vs control: -4%^1
  M. globosa counts of colony: 2900 CFU/ml
  M. globosa share: 27%
  M. globosa valuation, impact value x(i)′: 2^3 (>0.1 ≤ 0.5then an integer x′(i) of 2 is assigned (slight impact))
M. luteus
  M. luteus change in share vs control: -1%^1
  M. luteus counts of colony: 873 CFU/ml
  M. luteus share: 4%
  M. luteus valuation, impact value x(i)′: 1^3 (≤ 0.1 then an integer x′(i) of 1 is assigned (no impact))
E. coli
  antimicrobial effect on E. coli: antimicrobial effect
M. globosa [6]
  M. globosa change in share vs control: -6%^1
  M. globosa counts of colony: 3800 CFU/ml
  M. globosa share: 18%
  M. globosa valuation, impact value x(i)′: 1^3 (≤ 0.1 then an integer x′(i) of 1 is assigned (no impact))
C.simulans
  C.simulans counts of colony: 627 CFU/ml
  C.simulans share: 6%
  C.simulans valuation, impact value x(i)′: 1^3 (≤ 0.1 then an integer x′(i) of 1 is assigned (no impact))
P. acnes
  P. acnes change in share vs control: -4%^1
  P. acnes counts of colony: 3200 CFU/ml
  P. acnes share: 15%
  P. acnes valuation, impact value x(i)′: 1^3 (≤ 0.1 then an integer x′(i) of 1 is assigned (no impact))
S. aureus [7]
  antimicrobial effect on S. aureus: antimicrobial effect
C. tuberculostearicum
  C. tuberculostearicum change in share vs control: -1%^1
  C. tuberculostearicum counts of colony: 909 CFU/ml
  C. tuberculostearicum share: 4%
  C. tuberculostearicum valuation, impact value x(i)′: 1^3 (≤ 0.1 then an integer x′(i) of 1 is assigned (no impact))
S. capitis
  S. capitis counts of colony: 664 CFU/ml
  S. capitis share: 6%
  S. capitis valuation, impact value x(i)′: 2^3 (>0.1 ≤ 0.5then an integer x′(i) of 2 is assigned (slight impact))
S. epidermidis [8]
  growth of S. epidermidis compared to the control, in words: increased
  S. epidermidis change in share vs control: +5%^1
  S. epidermidis counts of colony: 2255 CFU/ml
  S. epidermidis share: 21%
  S. epidermidis valuation, impact value x(i)′: 2^3 (>0.1 ≤ 0.5then an integer x′(i) of 2 is assigned (slight impact))
S. epidermidis [9]
  CSE4h counts of colony of S. epidermidis: 170 CFU/ml
  CSE4h share of S. epidermidis: 77%
  CSE0 share of S. epidermidis: 89%
  CSE0 counts of colony of S. epidermidis: 235 CFU/ml
S. epidermidis [9]; t = 0 vs t = 4 h
  share of S. epidermidis, effect in words: significantly altered

## CCCC(O)CO (stereo not shown) [pentylene glycol, 1,2-pentanediol, reference compound]
C. acnes
  C. acnes change in share vs control: -19.5%^1
  C. acnes counts of colony: 2000 CFU/ml
  C. acnes share: 20%
  C. acnes valuation, impact value x(i)′: 3^3 (> 0.5 then an integer x′(i) of 3 is assigned (significant impact))
S. mitis [1]
  S. mitis change in share vs control: +0.5%^1
  S. mitis counts of colony: 380 CFU/ml
  S. mitis share: 4%
  S. mitis valuation, impact value x(i)′: 2^3 (>0.1 ≤ 0.5then an integer x′(i) of 2 is assigned (slight impact))
S. aureus [2]; 4 hours of incubation
  share of S. aureus, effect in words: not reduced
S. aureus [2]
  CSA4h counts of colony of S. aureus: 3900 CFU/ml
  CSA4h share of S. aureus: 45%
  CSA0 share of S. aureus: 20%
  CSA0 counts of colony of S. aureus: 280 CFU/ml
[3]
  Change of total CFU/ml vs control: +2.60%^2
  Total counts of colony: 10160 CFU/ml
  Total share: 100%
  overall impact value y: 2.4^4
[3]; in contrast to 1,3-propanediol
  share of the microbes of sebaceous skin, effect in words: alter the share of the microbes of sebaceous skin to a greater extend
S. hominis
  S. hominis counts of colony: 2100 CFU/ml
  S. hominis share: 21%
  S. hominis valuation, impact value x(i)′: 2^3 (>0.1 ≤ 0.5then an integer x′(i) of 2 is assigned (slight impact))
M. globosa [5]
  M. globosa change in share vs control: +1%^1
  M. globosa counts of colony: 830 CFU/ml
  M. globosa share: 8%
  M. globosa valuation, impact value x(i)′: 2^3 (>0.1 ≤ 0.5then an integer x′(i) of 2 is assigned (slight impact))
C.simulans
  C.simulans change in share vs control: -3%^1
  C.simulans counts of colony: 450 CFU/ml
  C.simulans share: 4%
  C.simulans valuation, impact value x(i)′: 2^3 (>0.1 ≤ 0.5then an integer x′(i) of 2 is assigned (slight impact))
S. capitis
  S. capitis counts of colony: 1100 CFU/ml
  S. capitis share: 11%
  S. capitis valuation, impact value x(i)′: 3^3 (> 0.5 then an integer x′(i) of 3 is assigned (significant impact))
S. epidermidis [8]
  S. epidermidis change in share vs control: +17%^1
  S. epidermidis counts of colony: 3300 CFU/ml
  S. epidermidis share: 32%
  S. epidermidis valuation, impact value x(i)′: 3^3 (> 0.5 then an integer x′(i) of 3 is assigned (significant impact))
S. epidermidis [9]
  CSE4h counts of colony of S. epidermidis: 3200 CFU/ml
  CSE4h share of S. epidermidis: 55%
  CSE0 share of S. epidermidis: 80%
  CSE0 counts of colony of S. epidermidis: 1100 CFU/ml
